Measurements taken from patent US10160762B2, “6-alkyl dihydropyrazolopyrimidinone compounds as PDE2 inhibitors” (Merck Sharp & Dohme Corp., priority 2015, dated 2018).

These compounds were tested against T1, human PDE2A1 (Homo sapiens, UniProt O00408) (assay: IMAP FP PDE assay, human PDE2A1). Settings: Lab A; read-out: Human PDE2 Ki (nM) Lab A.
T1 construct: GST; purchased BPS Bioscience (San Diego, Calif.) 60020; host or cells: insect cells
Assay type: biochemical
Method: Selectivity for PDE2, as compared to other PDE families, was assessed using the IMAP® technology. Human PDE10A2 enzyme was prepared from cytosolic fractions of transiently transfected HEK cells. All other PDE's were GST Tag human enzyme expressed in insect cells and were obtained from BPS Bioscience (San Diego, Calif.): PDE1A (Cat#60010), human PDE2A1 (Cat#60020), PDE3A (Cat#60030), PDE4A1A (Cat#60040), PDE5A1 (Cat#60050), PDE6C (Cat#60060), PDE7A (Cat#60070), PDE8A1 (Cat#60080), PDE9A2 (Cat#60090), PDE11A4 (Cat#60110).
Assays for PDE 1 through 11 were performed in parallel at room temperature in 384-well microtiter plates with an incubation volume of 20.2 μL. Solutions of test compounds were prepared in DMSO and serially diluted with DMSO to yield 30 μL of each of ten solutions differing by 3-fold in concentration, at 32 serial dilutions per plate. […] A Labcyte POD 810 (Labcyte, Sunnyvale, Calif.) was used to dispense 200 nL from each well of the titration plate to make eleven copies of the assay plate for each titration, one copy for each PDE enzyme. A solution of each enzyme (dilution from aliquots, sufficient to produce 20% substrate conversion) and a separate solution of FAM-labeled cAMP or FAM-labeled cGMP from Molecular Devices (Sunnyvale, Calif., product # R7506 or cGMP#R7508), at a final concentration of 50 nM were made in the assay buffer (10 mM Tris HCl, pH 7.2, 10 mM MgCl2, 0.05% NaN3 0.01% Tween-20, and 1 mM DTT). Note that the substrate for PDE2 is 50 nM FAM cAMP containing 1000 nM of cGMP. The enzyme and the substrate were then added to the assay plates in two consecutive additions of 10 μL and then shaken to mix. The reaction was allowed to proceed at room temperature for 60 minutes. A binding solution was then made from the kit components, comprised of 80% Solution A, 20% Solution B and binding reagent at a volume of 1/600 the total binding solution. The enzymatic reaction was stopped by addition of 60 μL of the binding solution to each well of the assay plate. The plates were sealed and shaken for 10 seconds. The plates were incubated at room temperature for one hour, then the parallel and perpendicular fluorescence was measured using a Tecan Genios Pro plate reader (Tecan, Switzerland). The apparent inhibition constants for the compounds against all 11 PDE's was determined from the parallel and perpendicular fluorescent readings as described for PDE10 FP assay using the following apparent KM values for each enzyme and substrate combination: PDE1A (FAM cGMP) 70 nM, human PDE2A1 (FAM cAMP) 10,000 nM, PDE3A (FAM cAMP) 50 nM, PDE4A1A (FAM cAMP) 1500 nM, PDE5A1 (FAM cGMP) 400 nM, PDE6C (FAM cGMP) 700 nM, PDE7A (FAM cAMP) 150 nM, PDE8A1 (FAM cAMP) 50 nM, PDE9A2 (FAM cGMP) 60 nM, PDE10A2 (FAM cAMP) 150 nM, PDE11A4 (FAM cAMP) 1000 nM. The intrinsic PDE2 inhibitory activity of a compound which may be used in accordance with the present invention may be determined by these assays.

T1 sequence (O00408 1-920 isoform O00408-2): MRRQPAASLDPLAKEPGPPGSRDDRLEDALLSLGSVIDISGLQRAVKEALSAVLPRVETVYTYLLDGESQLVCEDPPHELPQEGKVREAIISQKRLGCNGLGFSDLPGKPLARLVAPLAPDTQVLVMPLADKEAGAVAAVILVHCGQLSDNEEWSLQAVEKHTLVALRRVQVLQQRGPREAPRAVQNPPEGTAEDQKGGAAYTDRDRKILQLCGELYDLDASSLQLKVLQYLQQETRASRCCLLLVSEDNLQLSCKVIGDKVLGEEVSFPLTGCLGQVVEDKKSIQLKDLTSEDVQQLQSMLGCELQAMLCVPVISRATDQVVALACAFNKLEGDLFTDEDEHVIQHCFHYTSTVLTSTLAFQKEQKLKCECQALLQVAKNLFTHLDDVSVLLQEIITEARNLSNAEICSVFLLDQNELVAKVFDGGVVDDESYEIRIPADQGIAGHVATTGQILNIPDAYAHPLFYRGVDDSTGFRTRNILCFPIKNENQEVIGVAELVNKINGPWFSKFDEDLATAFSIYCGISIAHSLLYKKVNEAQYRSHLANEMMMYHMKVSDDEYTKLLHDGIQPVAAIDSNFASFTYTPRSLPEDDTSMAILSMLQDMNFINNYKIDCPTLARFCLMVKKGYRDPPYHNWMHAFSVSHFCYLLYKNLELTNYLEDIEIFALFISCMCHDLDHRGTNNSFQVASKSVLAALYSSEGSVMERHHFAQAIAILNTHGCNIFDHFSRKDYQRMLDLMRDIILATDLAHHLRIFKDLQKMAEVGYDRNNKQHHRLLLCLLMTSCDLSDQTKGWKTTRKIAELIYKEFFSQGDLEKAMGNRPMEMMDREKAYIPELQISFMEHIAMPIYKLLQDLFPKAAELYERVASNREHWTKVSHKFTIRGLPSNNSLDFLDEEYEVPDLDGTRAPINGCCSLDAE

Ki | SMILES
0.72 nM | COc1ccc(Cc2nc3c(c(CO)nn3C(C)c3ccc(C(F)(F)F)cc3)c(=O)[nH]2)cc1OC (racemic) [Example 297, 6-(3,4-Dimethoxybenzyl)-3-(hydroxymethyl)-1-{1-[4-(trifluoromethyl)phenyl]ethyl}-1,5-dihydro-4H-pyrazolo[3,4-d]pyrimidin-4-one]

Same assay, conditions: Lab B; read-out: Human PDE2 Ki (nM) Lab B

SMILES | Ki
CC1CCC(Cc2nc3c(c(CO)nn3C(C)c3ccc(C(F)(F)F)cc3)c(=O)[nH]2)O1 (racemic) [Example 298, 3-(Hydroxymethyl)-6-[(5-methyltetrahydrofuran-2-yl)methyl]-1-{1-[4-(trifluoromethyl)phenyl]ethyl}-1,5-dihydro-4H-pyrazolo[3,4-d]pyrimidin-4-one] | 62 nM
Cc1nc2c(c(CO)nn2C(c2ccc(C(F)(F)F)c(F)c2)C2(C)CC2)c(=O)[nH]1 (single isomer, unassigned) [Example 14, (R)- or (S)-1-((3-Fluoro-4-(trifluoromethyl)phenyl)(1-methylcyclopropyl)methyl)-3-(hydroxymethyl)-6-methyl-1H-pyrazolo[3,4-d]pyrimidin-4(5H)-one] | 2.4 nM
Cc1nc2c(c(CO)nn2C(C)c2ccc(C(F)(F)F)cc2F)c(=O)[nH]1 (single isomer, unassigned) [Example 16, (R)- or (S)-1-(1-(2-Fluoro-4-(trifluoromethyl)phenyl)ethyl)-3-(hydroxymethyl)-6-methyl-1H-pyrazolo[3,4-d]pyrimidin-4(5H)-one] | 81 nM
Cc1nc2c(c(CO)nn2C(C)c2ccc(OC(F)F)cc2)c(=O)[nH]1 (single isomer, unassigned) [Example 20, (R)- or (S)-1-(1-(4-(Difluoromethoxy)phenyl)ethyl)-3-(hydroxymethyl)-6-methyl-1H-pyrazolo[3,4-d]pyrimidin-4(5H)-one] | 305 nM
Cc1nc2c(c(CO)nn2C(C)c2ccc(SC(F)(F)F)cc2)c(=O)[nH]1 (single isomer, unassigned) [Example 22, (R)- or (S)-3-(Hydroxymethyl)-6-methyl-1-(1-(4-(trifluoromethylthio)phenyl)ethyl)-1H-pyrazolo[3,4-d]pyrimidin-4(5H)-one] | 125 nM
Cc1nc2c(c(CC(F)(F)F)nn2C(c2ccc(C(F)(F)F)c(F)c2)C(C)(C)C)c(=O)[nH]1 (single isomer, unassigned) [Example 60, (R)- or (S)-1-(1-(3-Fluoro-4-(trifluoromethyl)phenyl)-2,2-dimethylpropyl)-6-methyl-3-(2,2,2-trifluoroethyl)-1H-pyrazolo[3,4-d]pyrimidin-4(5H)-one] | > 2960 nM
Cc1nc2c(c(CC(F)(F)F)nn2C(c2ccc(C(F)(F)F)c(F)c2)C(C)(C)C)c(=O)[nH]1 (single isomer, unassigned) [Example 61, (S)- or (R)-1-(1-(3-Fluoro-4-(trifluoromethyl)phenyl)-2,2-dimethylpropyl)-6-methyl-3-(2,2,2-trifluoroethyl)-1H-pyrazolo[3,4-d]pyrimidin-4(5H)-one] | 55 nM
Cc1nc2c(c(CC(F)(F)F)nn2C(c2ccc(C(F)(F)F)c(F)c2)C2(C)CC2)c(=O)[nH]1 (single isomer, unassigned) [Example 62, (R)- or (S)-1-((3-Fluoro-4-(trifluoromethyl)phenyl)(1-methylcyclopropyl)methyl)-6-methyl-3-(2,2,2-trifluoroethyl)-1H-pyrazolo[3,4-d]pyrimidin-4(5H)-one] | 1100 nM
Cc1nc2c(c(CC(F)(F)F)nn2C(c2ccc(C(F)(F)F)c(F)c2)C2(C)CC2)c(=O)[nH]1 (single isomer, unassigned) [Example 63, (S)- or (R)-1-((3-Fluoro-4-(trifluoromethyl)phenyl)(1-methylcyclopropyl)methyl)-6-methyl-3-(2,2,2-trifluoroethyl)-1H-pyrazolo[3,4-d]pyrimidin-4(5H)-one] | 45 nM
Cc1nc2c(c(CC(F)(F)F)nn2C(C)c2ccc(C(F)(F)F)cc2)c(=O)[nH]1 (single isomer, unassigned) [Example 64, (R)- or (S)-6-Methyl-3-(2,2,2-trifluoroethyl)-1-(1-(4-(trifluoromethyl)phenyl)ethyl)-1H-pyrazolo[3,4-d]pyrimidin-4(5H)-one] | 274 nM
Cc1nc2c(c(C(F)(F)F)nn2C(C)c2ccc(C(F)(F)F)cc2)c(=O)[nH]1 (single isomer, unassigned) [Example 68, (R)- or (S)-6-Methyl-3-(trifluoromethyl)-1-(1-(4-(trifluoromethyl)phenyl)ethyl)-1H-pyrazolo[3,4-d]pyrimidin-4(5H)-one] | 8.6 nM
Cc1nc2c(c(C(F)(F)F)nn2C(C)c2ccc(C(F)(F)F)cc2)c(=O)[nH]1 (single isomer, unassigned) [Example 69, (S)- or-(R)-6-Methyl-3-(trifluoromethyl)-1-(1-(4-(trifluoromethyl)phenyl)ethyl)-1H-pyrazolo[3,4-d]pyrimidin-4(5H)-one] | 713 nM
Cc1nc2c(c(C3CCCO3)nn2C(C)c2ccc(C(F)(F)F)cc2)c(=O)[nH]1 (single isomer, unassigned) [Example 72, (S, R)- or (S, S)- or (R, S)- or (R, R)-6-Methyl-3-(-tetrahydrofuran-(trifluoromethyl)phenyl)ethyl)-1H-pyrazolo[3,4-d]pyrimidin-4(5H)-one] | 570 nM

More lines, now with the values ahead:

Ki | SMILES
~2850 nM | Cc1nc2c(c(CO)nn2C(C)c2ccc(C(F)(F)F)cc2Cl)c(=O)[nH]1 (single isomer, unassigned) [Example 18, (R)- or (S)-1-(1-(2-Chloro-4-(trifluoromethyl)phenyl)ethyl)-3-(hydroxymethyl)-6-methyl-1H-pyrazolo[3,4-d]pyrimidin-4(5H)-one]
327 nM | Cc1nc2c(c(CC(F)(F)F)nn2C(C)c2ccc(OC(F)(F)F)cc2)c(=O)[nH]1 (single isomer, unassigned) [Example 66, (R)- or (S)-6-Methyl-3-(2,2,2-trifluoroethyl)-1-(1-(4-(trifluoromethoxy)phenyl)ethyl)-1H-pyrazolo[3,4-d]pyrimidin-4(5H)-one]
159 nM | Cc1nc2c(c(C3CCCO3)nn2C(C)c2ccc(C(F)(F)F)cc2)c(=O)[nH]1 (single isomer, unassigned) [Example 70, (R, R)- or (R, S) or (S, R) or (S, S)-6-Methyl-3-(-tetrahydrofuran-(trifluoromethyl)phenyl)ethyl)-1H-pyrazolo[3,4-d]pyrimidin-4(5H)-one]
154 nM | Cc1nc2c(c(CO)nn2C(c2ccc(C(F)(F)F)c(F)c2)C2(C)CC2)c(=O)[nH]1 (single isomer, unassigned) [Example 15, (S)- or (R)-1-((3-Fluoro-4-(trifluoromethyl)phenyl)(1-methylcyclopropyl)methyl)-3-(hydroxymethyl)-6-methyl-1H-pyrazolo[3,4-d]pyrimidin-4(5H)-one]
111 nM | Cc1nc2c(c(C3CCCO3)nn2C(C)c2ccc(C(F)(F)F)cc2)c(=O)[nH]1 (single isomer, unassigned) [Example 71, (R, S)- or (R, R)- or (S, R)- or (S, S)-6-Methyl-3-(-tetrahydrofuran-2-yl)-1-(-l-(4-(trifluoromethyl)phenyl)ethyl)-1H-pyrazolo[3,4-d]pyrimidin-4(5H)-one]
6.7 nM | Cc1nc2c(c(CC(F)(F)F)nn2C(C)c2ccc(OC(F)(F)F)cc2)c(=O)[nH]1 (single isomer, unassigned) [Example 67, (S)- or (R)-6-Methyl-3-(2,2,2-trifluoroethyl)-1-(1-(4-(trifluoromethoxy)phenyl)ethyl)-1H-pyrazolo[3,4-d]pyrimidin-4(5H)-one]
5 nM | Cc1nc2c(c(CC(F)(F)F)nn2C(C)c2ccc(C(F)(F)F)cc2)c(=O)[nH]1 (single isomer, unassigned) [Example 65, (S)- or (R)-6-Methyl-3-(2,2,2-trifluoroethyl)-1-(1-(4-(trifluoromethyl)phenyl)ethyl)-1H-pyrazolo[3,4-d]pyrimidin-4(5H)-one]
